This is an account of results in patent US8273780B2, “Polycyclic antagonists of lysophosphatidic acid receptors” (Amira Pharmaceuticals, Inc., priority 2009, dated 2012).

The structures appear in SMILES notation. pIC50: −log10 of the molar value. Where only a bound is given, the exact number is not on record here.

Assay [1] deals with T1, Human LPA3 (Homo sapiens, UniProt Q9UBY5).
T1 construct: The full-length cDNA fragment for human LPA3 was obtained by PCR from the vector; expressed in transfected cells; cDNA from the Missouri S&T cDNA Resource Center
T1 sequence (Q9UBY5 1-353): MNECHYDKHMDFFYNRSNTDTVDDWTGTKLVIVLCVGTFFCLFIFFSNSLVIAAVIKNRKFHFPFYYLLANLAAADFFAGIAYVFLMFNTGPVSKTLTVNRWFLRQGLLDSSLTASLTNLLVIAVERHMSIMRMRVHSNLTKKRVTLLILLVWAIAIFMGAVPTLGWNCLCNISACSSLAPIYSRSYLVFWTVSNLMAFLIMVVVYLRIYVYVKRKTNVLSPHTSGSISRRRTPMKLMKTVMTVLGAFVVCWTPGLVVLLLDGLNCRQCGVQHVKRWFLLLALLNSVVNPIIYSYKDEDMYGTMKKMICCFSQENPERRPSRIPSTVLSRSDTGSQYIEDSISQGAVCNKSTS
Description: LPA3 calcium flux assay. Particulars: CHO cells expressing human LPA3, 10 nM LPA; read-out: HLPA3 Ca Flux IC50. It counts as cell-based. The method in brief:
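Stable hLPA3-CHO cells, serum-starved overnight, loaded with Calcium 4 dye in HBSS/20 mM HEPES/0.3% fatty-acid-free HSA for 1 h at 37° C. Compounds added for 30 min at room temperature, then cells stimulated with 10 nM LPA. Intracellular Ca^2+ measured; IC50 from titration curves.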

Assay [2] concerns C57BL/6 mice. Description: Mouse unilateral ureteral obstruction kidney fibrosis model. It counts as in vivo. Particulars: compared to untreated group. Here is the method:
Female C57BL/6 mice (Harlan, 20-25 g) housed 4/cage will be given free access to food and water and allowed to acclimate for at least 7 days prior to test initiation. After the habituation phase, mice undergo unilateral ureteral obstruction (UUO) surgery or sham to left kidney. Briefly, a longitudinal, upper left incision is performed to expose the left kidney. The renal artery is located and 6/0 silk thread is passed between the artery and the ureter. The thread is looped around the ureter and knotted 3 times insuring full ligation of ureter. The kidney is returned to abdomen, the abdominal muscle is sutured and the skin is stapled closed. Mice are returned to their cages and monitored daily for the duration of the experiment. Test compound or vehicle is delivered po, ip or sc daily. The route and frequency of dosing is based on previously determined pharmacokinetic properties. All animals are sacrificed using inhaled isoflurane 4, 8 or 14 days after UUO surgery. Following sacrifice blood is drawn via cardiac puncture, the kidneys are harvested and one half of the kidney is frozen at −80° C. and the other half is fixed in 10% neutral buffered formalin for histological assessment of kidney fibrosis using light microscopy (10× magnification). Kidney tissue homogenates are analyzed for collagen levels using Sircol (Biocolor Ltd, UK). Fixed kidney tissue is also stained using hematoxylin and eosin (H&E) and trichrome and kidney fibrosis is determined by quantitative, computer-assisted densitometry of collagen in […] tissue sections using light microscopy and collagen content in kidney lysate. Plasma and kidney tissue lysates are also analyzed for concentrations of inflammatory, pro-fibrotic and tissue injury biomarkers including transforming growth factor β1, hyaluronic acid, tissue inhibitor of metalloproteinase-1, and plasminogen activator inhibitor-1, using commercially available ELISA. The resulting data are plotted using Graphpad prism and statistical differences between groups determined.

In assay [3] the target is T2, Human LPA1 (Homo sapiens, UniProt Q92633).
T2 construct: the full-length cDNA for human LPA1 was obtained by PCR of the reverse transcription reaction; expressed in transfected cells
T2 sequence (Q92633 whole entry): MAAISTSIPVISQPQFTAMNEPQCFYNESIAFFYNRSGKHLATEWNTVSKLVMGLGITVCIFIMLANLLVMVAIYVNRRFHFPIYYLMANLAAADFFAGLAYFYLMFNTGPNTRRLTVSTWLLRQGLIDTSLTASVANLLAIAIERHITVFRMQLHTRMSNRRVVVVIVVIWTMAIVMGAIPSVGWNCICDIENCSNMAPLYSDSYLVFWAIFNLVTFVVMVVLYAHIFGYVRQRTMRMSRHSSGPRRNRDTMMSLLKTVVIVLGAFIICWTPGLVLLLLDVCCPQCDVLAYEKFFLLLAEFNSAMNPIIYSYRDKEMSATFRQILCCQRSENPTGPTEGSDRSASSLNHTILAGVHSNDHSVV
Description: LPA1 calcium flux assay. It counts as cell-based. Particulars: CHO cells expressing human LPA1, 10 nM LPA; read-out: HLPA1 Ca Flux IC50. The method in brief: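 CHO cells stably expressing cloned human LPA1, serum-starved overnight, loaded 1 h at 37 °C with Calcium 4 dye in HBSS/20 mM Hepes/0.3% fatty-acid-free HSA. Compounds preincubated 30 min at room temp, then stimulated with 10 nM LPA; intracellular Ca2+ measured and IC50 derived from titration curves.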
A general note: A change in cytosolic calcium serves as a functional read-out for many receptors and channels.

The subject of assay [4] is human A2058 melanoma cells. Put plainly: LPA1 chemotaxis assay. It counts as cell-based. Particulars: 100 nM LPA, read-out: inhibition of LPA-driven chemotaxis IC50. Here is the method: Chemotaxis of the A2058 human melanoma cells was measured using the Neuroprobe ChemoTx® System plates (8 μM pore size, 5.7 mm diameter sites). The filter sites were coated with 0.001% fibronectin (Sigma) in 20 mM Hepes, pH 7.4 and allowed to dry. A2058 cells were serum-starved for 24 hours, then harvested with Cell Stripper and resuspended in DMEM containing 0.1% fatty-acid-free bovine serum albumin (BSA) to a concentration of 1×10^6/ml. Cells were mixed with an equal volume of test compound (2×) in DMEM containing 0.1% fatty-acid-free BSA and incubated at 37° C. for 15 minutes. LPA (100 nM in DMEM containing 0.1% fatty-acid-free BSA) or vehicle was added to each well of the lower chamber and 50 μl of the cell suspension/test compound mix was applied to the upper portion of the ChemoTx plate. Plates were incubated at 37° C. for three hours and then the cells removed from the upper portion by rinsing with PBS and scraping. The filter was dried then stained with HEMA 3 Staining System (Fisher Scientific). The absorbance of the filter was read at 590 nm and IC50s were determined using Symyx Assay Explorer.

As for `Cc1noc(-c2ccc(-c3ccc(C4(C(=O)O)CC4)cc3)cc2)c1NC(=O)O[C@H](C)c1ccccc1` [Compound 1, 1-{4′-[3-Methyl-4-((R)-1-phenyl-ethoxycarbonylamino)-isoxazol-5-yl]-biphenyl-4-yl}-cyclopropanecarboxylic acid], the pIC50 (commonly −log10 of the IC50, conventionally taken in molar units) in assay [1] was 5.00 to 6.00. Further, in assay [2], the hyaluronic acid result was “reduced”, the “plasminogen activator inhibitor-1” value is listed as “reduced”, the “tissue inhibitor of metalloproteinase-1” value was “reduced” and the total kidney collogen entry is on record as “reduced”. The “transforming growth factor β1” value in assay [2] is “reduced”. Besides, the “collagen Type 1” value in assay [2] (kidney) was “reduced”. Also, in assay [3], the pIC50 is more than 6.52. Also, in assay [4], the pIC50 is more than 7.00.
